Results: article PMC10952572, “Improved PIEZO1 agonism through 4‐benzoic acid modification of Yoda1” (British Journal of Pharmacology, 2023)

Legend:
mPIEZO1 [1] = target: T1, mPIEZO1 (Mus musculus, UniProt E2JF22); assay: Pre-treatment with analogue before Yoda1 stimulus, Ca2+ assay in mPIEZO1-TREx cells; format: cell-based; settings: mPIEZO1-TREx, 10 μM compound 30 min pretreatment before 0.5 μM Yoda1
T1 construct: expressed in transfected cells

mPIEZO1 [2] = target: T1, mPIEZO1; assay: Intracellular Ca2+ measurement (Fura-2) in mPIEZO1-TREx cells; format: cell-based; settings: for Peak ΔCa2+i (ΔF340/380), median fold difference compared to Yoda1: 10 μM compound, mPIEZO1-TREx cells, paired with 10 μM Yoda1; for Ca2+ response (agonist effect): 10 μM, cells overexpressing mPIEZO1, compared with Yoda1
Excerpt: HEK T‐REx™ cells that constitutively overexpress murine PIEZO1 were generated as previously described (Blythe et al., [2019]). pcDNA3 mouse PIEZO1 (mPIEZO1) IRES green fluorescent protein (GFP), a gift from Ardem Patapoutian (Coste et al., [2010]), was used as a template to clone the mPIEZO1 coding sequence into pcDNA4/TO. Overlapping mPIEZO1 (forward primer 5′‐[…]‐3′ and reverse primer 5′‐[…]‐3′) and pcDNA4/TO (forward primer 5′‐[…]‐3′ and reverse primer 5′‐[…]‐3′) PCR products were assembled using Gibson Assembly (New England Biolabs). […] HEK T‐REx™ 293 cells were transfected with pcDNA4/TO‐mPIEZO1 using Lipofectamine 2000 (Invitrogen) and treated with 200 μg·ml^−1 zeocin to select stably transfected cells. Individual clones were isolated and analysed for expression using Yoda1 and intracellular Ca^2+ measurements. These cells are referred to as mPIEZO1‐TREx.
(§1) HEK 293‐TREx cells and their stably transfected derivatives or transiently transfected HEK 293 or HeLa cells were seeded at a density of 7.5 × 10^4 cells per well into poly‐D‐lysine‐coated 96‐well plates. The plates were either commercially pre‐coated with poly‐D‐lysine (Greiner Bio‐One #655946) or (Greiner Bio‐One #655090) were coated in‐house with 35 μl of a 10 μg·ml^−1 poly‐D‐lysine (Bio‐Techne, Cultrex # 3439‐100‐01) in sterile deionised water per well for at least 24 h and rinsed three times with 100 μl per well sterile D‐PBS before addition of cells. HUVECs were seeded into tissue culture‐treated 96‐well plates (Greiner Bio‐One #655090) at a density of either 2.5 × 10^4 cells 24 h before experimentation or 1.25 × 10^4 cells 48 h before experimentation. Cells were incubated with 2 μM Fura‐2‐AM (Molecular Probes™) in the presence of 0.01% (wt./vol.) pluronic F127 (Sigma‐Aldrich #P2443) in standard bath solution (SBS) for 1 h at 37°C. Cells were washed with SBS for 30 min at room temperature. Alternatively, if inhibitors were being tested, these were added at this time, immediately following a wash in SBS. (−)‐Englerin A (Akbulut et al., [2015]) was used in SBS containing 0.01% pluronic acid as a dispersing agent to minimise aggregation of compound. Unless otherwise stated, the final concentration of DMSO was 0.2% (vol./vol). Working 2000× stock solutions of test compounds were freshly made in DMSO and diluted 1000‐fold in SBS during the 30 min SBS wash/inhibitor pre‐incubation period to obtain 2× solutions for injection. When testing the highest concentration of Yoda1, KC159 and KC289 (30 μM), the final DMSO concentration was 0.6% (vol./vol.). Measurements were made at room temperature on a 96‐well fluorescence plate reader (FlexStation 3, Molecular Devices, Sunnyvale, CA, USA) controlled by SoftMax Pro software v7.0.3. Recipient wells containing 80 μl SBS/0.2% (vol./vol.) DMSO vehicle or inhibitor compound received 80 μl 2× compound at an injection rate of 1 μl·s^−1, and the pipette introduced liquids from a height setting of 70 μl. No trituration was performed. For recordings using Fura‐2, the change in intracellular Ca was indicated as the ratio of Fura‐2 emission (510 nm) intensities at 340 and 380 nm excitation. Photomultipliers were set to medium sensitivity. SBS contained 130 mM NaCl, 5 mM KCl, 8 mM D‐glucose, 10 mM HEPES, 1.2 mM MgCl2 and 1.5 mM CaCl2, and the pH was adjusted to 7.4 with NaOH. The solution was filtered through a 0.2 μm bottle‐top filter prior to use and handled aseptically thereafter.
For intracellular Ca^2+ (Ca^2+i) measurements, technical intra‐experiment replicates were used to improve confidence in the data. Analysis of individual experiments was performed to obtain mean ± SEM values. For collated analysis of independent experiments, where normal distributions were not evidenced by Shapiro–Wilk normality tests, non‐parametric distributions were assumed, and therefore, median values were used. […]

hPIEZO1 [3] = target: T2, hPIEZO1 (Homo sapiens, UniProt Q92508); assay: Pre-treatment with analogue before Yoda1 stimulus, Ca2+ assay in hPIEZO1-TREx cells; format: cell-based; settings: for 2 μM Yoda1-evoked peak ΔCa2+i (ΔF340/380), median fold difference compared to DMSO pretreatment: hPIEZO1-TREx, 10 μM compound 30 min pretreatment before 2 μM Yoda1; for Inhibition of the action of Yoda1: hPIEZO1 channels, 10 μM for 30 min prior to Yoda1
T2 construct: expressed in transfected cells
T2 sequence (Q92508 whole entry): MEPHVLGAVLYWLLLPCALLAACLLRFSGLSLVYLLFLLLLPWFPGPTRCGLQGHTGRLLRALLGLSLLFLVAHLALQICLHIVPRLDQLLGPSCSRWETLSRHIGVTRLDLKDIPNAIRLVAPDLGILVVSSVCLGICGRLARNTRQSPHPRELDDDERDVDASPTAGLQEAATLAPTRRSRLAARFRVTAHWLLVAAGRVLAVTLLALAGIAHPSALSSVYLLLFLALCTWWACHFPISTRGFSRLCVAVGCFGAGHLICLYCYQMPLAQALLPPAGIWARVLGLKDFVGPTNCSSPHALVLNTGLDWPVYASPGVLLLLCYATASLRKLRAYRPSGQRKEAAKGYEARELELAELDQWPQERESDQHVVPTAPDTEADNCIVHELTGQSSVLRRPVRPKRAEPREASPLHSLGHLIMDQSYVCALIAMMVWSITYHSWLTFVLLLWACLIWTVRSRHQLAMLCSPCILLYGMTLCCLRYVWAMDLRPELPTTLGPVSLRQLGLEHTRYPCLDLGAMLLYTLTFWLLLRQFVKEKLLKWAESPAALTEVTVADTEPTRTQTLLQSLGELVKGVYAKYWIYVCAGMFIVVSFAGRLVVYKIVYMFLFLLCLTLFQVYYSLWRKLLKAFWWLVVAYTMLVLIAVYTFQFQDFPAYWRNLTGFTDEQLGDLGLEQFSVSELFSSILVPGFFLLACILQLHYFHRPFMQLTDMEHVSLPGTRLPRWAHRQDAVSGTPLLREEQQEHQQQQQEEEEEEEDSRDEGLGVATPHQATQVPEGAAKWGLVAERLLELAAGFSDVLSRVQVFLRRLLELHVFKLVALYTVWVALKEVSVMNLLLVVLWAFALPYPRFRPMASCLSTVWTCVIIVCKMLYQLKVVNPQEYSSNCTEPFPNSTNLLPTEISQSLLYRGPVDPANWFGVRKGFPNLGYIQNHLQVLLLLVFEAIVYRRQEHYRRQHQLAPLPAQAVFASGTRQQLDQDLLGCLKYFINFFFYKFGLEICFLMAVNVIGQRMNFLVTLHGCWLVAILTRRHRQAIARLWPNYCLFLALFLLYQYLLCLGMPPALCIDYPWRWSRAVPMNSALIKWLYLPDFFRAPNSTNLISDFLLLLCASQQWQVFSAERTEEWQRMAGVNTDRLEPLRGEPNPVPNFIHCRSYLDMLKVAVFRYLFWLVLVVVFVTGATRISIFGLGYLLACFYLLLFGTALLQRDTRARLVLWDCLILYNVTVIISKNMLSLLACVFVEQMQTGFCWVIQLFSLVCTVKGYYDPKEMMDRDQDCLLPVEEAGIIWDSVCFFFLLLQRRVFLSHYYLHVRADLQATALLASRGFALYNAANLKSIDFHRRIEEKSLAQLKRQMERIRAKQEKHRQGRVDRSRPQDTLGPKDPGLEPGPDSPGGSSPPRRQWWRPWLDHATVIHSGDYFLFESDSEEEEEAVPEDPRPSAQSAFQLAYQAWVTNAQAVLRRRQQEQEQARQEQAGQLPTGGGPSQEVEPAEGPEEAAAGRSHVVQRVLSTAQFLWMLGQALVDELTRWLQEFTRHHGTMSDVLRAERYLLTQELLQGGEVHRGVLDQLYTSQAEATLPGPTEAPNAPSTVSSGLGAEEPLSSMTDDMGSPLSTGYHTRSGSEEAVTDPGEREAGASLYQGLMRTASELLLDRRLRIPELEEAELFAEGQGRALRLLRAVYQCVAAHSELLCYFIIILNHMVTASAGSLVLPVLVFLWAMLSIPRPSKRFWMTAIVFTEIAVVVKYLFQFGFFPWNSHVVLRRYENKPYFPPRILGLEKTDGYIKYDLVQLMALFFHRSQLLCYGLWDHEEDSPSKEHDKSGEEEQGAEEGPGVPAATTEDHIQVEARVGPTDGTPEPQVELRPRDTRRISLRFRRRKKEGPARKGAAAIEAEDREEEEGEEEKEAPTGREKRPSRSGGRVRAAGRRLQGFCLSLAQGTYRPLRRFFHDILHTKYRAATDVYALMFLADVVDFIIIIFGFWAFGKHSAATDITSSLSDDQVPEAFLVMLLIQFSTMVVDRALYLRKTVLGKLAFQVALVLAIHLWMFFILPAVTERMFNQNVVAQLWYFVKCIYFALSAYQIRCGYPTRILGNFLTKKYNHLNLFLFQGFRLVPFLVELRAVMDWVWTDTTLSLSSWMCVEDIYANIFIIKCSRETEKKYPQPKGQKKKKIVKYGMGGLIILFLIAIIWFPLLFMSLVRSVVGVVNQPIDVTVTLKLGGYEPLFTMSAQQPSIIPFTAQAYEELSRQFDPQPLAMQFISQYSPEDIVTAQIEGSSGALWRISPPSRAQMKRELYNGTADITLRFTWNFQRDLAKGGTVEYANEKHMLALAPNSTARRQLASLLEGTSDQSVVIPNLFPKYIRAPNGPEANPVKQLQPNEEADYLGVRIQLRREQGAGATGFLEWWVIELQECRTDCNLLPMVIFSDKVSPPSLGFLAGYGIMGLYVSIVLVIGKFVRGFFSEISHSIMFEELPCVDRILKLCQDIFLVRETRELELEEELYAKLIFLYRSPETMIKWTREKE
Method: as §1
In view of the effect of Dooku1 described above, we tested if there are inhibitory actions of the new Yoda1 analogues by pre‐treating cells at 10 μM for 30 min prior to adding 2 μM Yoda1 (Figures 9 and S9, SI 1). All except KC157 and KC161 inhibited the action of Yoda1 on hPIEZO1 channels (Figures 9a and S9, SI 1). […] KC159 and KC289 were agonists, and so they may inhibit the effect of Yoda1 simply by pre‐activating the channels. KC158, KC161 and KC162 are also agonists of mPIEZO1 channels (Figure 3). […] Only the 2‐benzoic acid analogue (KC157) lacks agonist or antagonist properties.

hPIEZO1 [4] = target: T2, hPIEZO1; assay: Intracellular Ca2+ measurement (Fura-2) in hPIEZO1-TREx cells; format: cell-based; settings: 10 μM compound, hPIEZO1-TREx cells, paired with 10 μM Yoda1
Excerpt: HEK T‐REx™ 293 cells (Thermo Fisher Cat #R71007, RRID:CVCL_D585) that overexpress hPIEZO1 upon induction with tetracycline were generated as previously described (Rode et al., [2017]). PIEZO1‐GFP was used as a PCR template to clone hPIEZO1 coding sequence into pcDNA™4/TO between HindIII and EcoRI restriction sites. PIEZO1 was amplified as two fragments using the following primers: (HindIII‐PIEZO1‐Fw: […] and BamHI‐Int.PIEZO1‐Rv: […]) and (BamHI‐Int. PIEZO1‐Fw: […] and EcoRI‐PIEZO1‐Rv: […]). The two fragments were fused using BamHI restriction site, resulting in the full‐length PIEZO1 coding sequence with the c4182a silent mutation. HEK T‐REx™ 293 cells (Invitrogen) were transfected with pcDNA4/TO‐PIEZO1 using Lipofectamine 2000 (Thermo Fisher Scientific). Subsequently, cells were treated with 10 μg·ml^−1 blasticidin and 200 μg·ml^−1 zeocin (InvivoGen) to select stably transfected cells. Single‐cell clones were isolated and analysed individually. Expression was induced by treating the cells for 24 h with 10 ng·ml^−1 tetracycline and analysed by quantitative RT‐PCR and Western blot. These cells are referred to as hPIEZO1‐TREx.
as §1
For intracellular Ca^2+ (Ca^2+i) measurements, technical intra‐experiment replicates were used to improve confidence in the data. Analysis of individual experiments was performed to obtain mean ± SEM values. […]

mouse portal vein = assay: Wire myography, relaxation of phenylephrine pre-constricted vein
Method: Mice were anaesthetised with isoflurane (5% induction and 1.5% maintenance) in 95% O2 according to Schedule 1 procedure approved by the UK Home Office. The portal vein was quickly dissected and placed in Krebs solution. The Krebs PV solution consisted of 118 mM NaCl, 4.7 mM KCl, 2.5 mM CaCl2, 1.2 mM KH2PO4, 1.2 mM MgSO4·7H2O, 25.2 mM NaHCO3 and 11.1 mM glucose. By means of a dissecting microscope, adhering perivascular tissue was carefully removed and the vein was cut into 1 mm segments.
Vein segments were mounted onto two thin stainless steel wires in an isometric myograph (Multi Wire Myograph System 620M from Danish Myograph Technology [DMT]), for which the force transducer was calibrated once per month according to the manufacturer's instructions. The recording chamber was filled with gassed Krebs solution (95% O2/5% CO2, pH 7.4). The segments were then stretched to a normalised internal diameter according to the manufacturer's instructions. The mounted rings were kept in a 5 ml chamber containing Krebs solution at 37°C and continuously bubbled with a gas mixture of 95% O2 and 5% CO2 (pH 7.4). After an equilibration period of 60 min, the contractile function of the vessel was tested by replacing the Krebs solution by 60 mM K^+ solution. Following washout, the vein was contracted once with 10 μM phenylephrine and then Yoda1, KC159 or KC289 was applied with the concentrations of 0.1 to 10 μM. The NOS inhibitor, L‐NAME, (100 μM), was pre‐incubated for 20 min before the PIEZO1 modulator.
Because the anticipated effect of test compounds was to cause vessel relaxation, phenylephrine was applied to induce tension and the maximum value of this tension was defined as 0% relaxation (no relaxation). The value of tension immediately prior to application of phenylephrine was defined as 100% relaxation. Data are normalised to these values because, otherwise, the intrinsic variability in the absolute amount of tension induced by phenylephrine obscured exploration of the relaxant effect of compounds.
OriginPro 2020 was used for the analysis of myography data. Myography traces show readings taken every 0.5 or 1 s and were smoothed with the Savitzky–Golay filter set to 70 points. To compare the agonistic activity of Yoda1 analogues, basal vessel tension prior to compound injection was subtracted. Maximal tension in the presence of PE alone was used to define 0% relaxation. The tension value prior to PE application was defined as 100% relaxation. Following the addition of test compounds, tension readings were taken at the last time point of the treatments and expressed as percentage relaxation.

T1 sequence (E2JF22 whole entry): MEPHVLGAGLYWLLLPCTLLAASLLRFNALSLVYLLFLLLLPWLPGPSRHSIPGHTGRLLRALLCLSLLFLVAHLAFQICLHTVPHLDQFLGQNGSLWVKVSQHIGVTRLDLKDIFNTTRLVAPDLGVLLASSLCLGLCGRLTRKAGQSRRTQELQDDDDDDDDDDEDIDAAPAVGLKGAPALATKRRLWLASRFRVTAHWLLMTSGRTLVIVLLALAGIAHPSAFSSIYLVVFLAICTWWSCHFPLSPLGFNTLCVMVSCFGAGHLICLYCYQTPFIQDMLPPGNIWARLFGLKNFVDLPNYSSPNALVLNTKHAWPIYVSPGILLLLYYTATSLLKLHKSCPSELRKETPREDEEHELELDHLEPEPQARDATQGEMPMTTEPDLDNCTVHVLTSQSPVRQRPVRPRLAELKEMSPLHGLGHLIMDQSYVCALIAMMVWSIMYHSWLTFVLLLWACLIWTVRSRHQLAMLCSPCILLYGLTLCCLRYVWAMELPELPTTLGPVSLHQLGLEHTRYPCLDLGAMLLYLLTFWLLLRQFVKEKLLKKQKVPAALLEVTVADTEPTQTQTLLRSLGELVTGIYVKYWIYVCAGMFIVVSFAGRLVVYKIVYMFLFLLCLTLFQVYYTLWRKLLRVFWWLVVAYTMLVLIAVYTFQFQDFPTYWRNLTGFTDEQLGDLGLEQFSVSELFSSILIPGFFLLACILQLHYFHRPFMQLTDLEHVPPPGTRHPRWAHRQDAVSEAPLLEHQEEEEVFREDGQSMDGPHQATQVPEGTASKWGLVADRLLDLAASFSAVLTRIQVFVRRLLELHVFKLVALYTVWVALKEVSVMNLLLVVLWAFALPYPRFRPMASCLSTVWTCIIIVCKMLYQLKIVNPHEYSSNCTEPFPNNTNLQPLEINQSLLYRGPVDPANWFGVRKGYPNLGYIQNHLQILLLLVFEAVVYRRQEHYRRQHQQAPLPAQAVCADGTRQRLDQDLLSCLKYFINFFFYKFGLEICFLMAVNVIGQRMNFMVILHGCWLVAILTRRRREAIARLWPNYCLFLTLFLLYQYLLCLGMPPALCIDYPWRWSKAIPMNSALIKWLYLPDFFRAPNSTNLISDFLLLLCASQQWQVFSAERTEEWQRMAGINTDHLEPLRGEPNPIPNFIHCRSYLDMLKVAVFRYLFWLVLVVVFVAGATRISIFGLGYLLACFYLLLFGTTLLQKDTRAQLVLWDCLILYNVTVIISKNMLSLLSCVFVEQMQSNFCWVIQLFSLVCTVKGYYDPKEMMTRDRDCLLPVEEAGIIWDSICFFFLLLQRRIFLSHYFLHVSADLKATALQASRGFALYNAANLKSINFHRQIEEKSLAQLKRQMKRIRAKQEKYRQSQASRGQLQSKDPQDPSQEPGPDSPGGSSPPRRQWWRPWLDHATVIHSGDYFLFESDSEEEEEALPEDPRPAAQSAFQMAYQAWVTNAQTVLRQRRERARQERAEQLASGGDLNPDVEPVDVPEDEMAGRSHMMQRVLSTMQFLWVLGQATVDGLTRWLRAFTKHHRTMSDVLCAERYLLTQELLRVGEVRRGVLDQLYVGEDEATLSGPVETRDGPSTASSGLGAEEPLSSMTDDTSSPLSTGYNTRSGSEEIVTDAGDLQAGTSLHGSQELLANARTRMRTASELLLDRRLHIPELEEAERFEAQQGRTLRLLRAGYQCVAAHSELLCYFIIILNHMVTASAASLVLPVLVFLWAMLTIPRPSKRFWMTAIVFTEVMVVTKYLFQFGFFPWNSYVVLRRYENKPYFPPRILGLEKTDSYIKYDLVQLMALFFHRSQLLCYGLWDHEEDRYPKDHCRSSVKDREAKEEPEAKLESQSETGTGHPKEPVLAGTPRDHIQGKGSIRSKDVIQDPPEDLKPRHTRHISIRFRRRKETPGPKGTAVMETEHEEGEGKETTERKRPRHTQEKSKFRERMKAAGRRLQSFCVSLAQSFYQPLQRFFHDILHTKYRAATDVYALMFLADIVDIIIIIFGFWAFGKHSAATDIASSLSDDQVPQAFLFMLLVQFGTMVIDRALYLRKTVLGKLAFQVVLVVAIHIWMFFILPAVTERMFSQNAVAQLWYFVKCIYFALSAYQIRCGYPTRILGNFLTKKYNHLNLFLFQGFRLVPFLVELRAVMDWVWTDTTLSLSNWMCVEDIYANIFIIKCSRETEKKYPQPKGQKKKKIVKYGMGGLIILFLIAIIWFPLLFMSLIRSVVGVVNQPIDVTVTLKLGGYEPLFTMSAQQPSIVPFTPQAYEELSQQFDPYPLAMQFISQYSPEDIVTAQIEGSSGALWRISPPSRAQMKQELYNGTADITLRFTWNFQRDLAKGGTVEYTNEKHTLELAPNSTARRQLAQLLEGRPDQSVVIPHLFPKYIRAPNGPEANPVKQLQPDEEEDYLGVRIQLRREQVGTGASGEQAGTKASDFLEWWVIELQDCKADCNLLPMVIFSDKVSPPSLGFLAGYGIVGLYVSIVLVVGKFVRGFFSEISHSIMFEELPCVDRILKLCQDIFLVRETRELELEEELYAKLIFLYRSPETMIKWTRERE

| 0.5 μM Yoda1-evoked peak ΔCa2+i (ΔF340/380), median fold difference compared to DMSO pretreatment (mPIEZO1 [1]) | Peak ΔCa2+i (ΔF340/380), median fold difference compared to Yoda1 (mPIEZO1 [2]) | Ca2+ response (agonist effect) (mPIEZO1 [2]) | 2 μM Yoda1-evoked peak ΔCa2+i (ΔF340/380), median fold difference compared to DMSO pretreatment (hPIEZO1 [3]) | Inhibition of the action of Yoda1 (hPIEZO1 [3]) | Peak ΔCa2+i (ΔF340/380), median fold difference compared to Yoda1 (hPIEZO1 [4]) | SMILES | Effect on responses to phenylephrine (mouse portal vein; 10 μM Dooku1) | Effect of pre-incubation on relaxations evoked by PIEZO1 agonists (mouse portal vein; 10 μM Dooku1 pre-incubation, 30 min) |
| --- | --- | --- | --- | --- | --- | --- | --- | --- |
| −8.2 fold | −3.7 fold | agonist effects | −2.5 fold | inhibit the Yoda1 response | −3.7 fold | NC(=O)c1cccc(-c2nnc(SCc3c(Cl)cccc3Cl)s2)c1 [KC162] |  |  |
| −4.9 fold | −2.0 fold | agonist effects | −3.8 fold | inhibit the Yoda1 response | −11.7 fold | O=C(O)c1cccc(-c2nnc(SCc3c(Cl)cccc3Cl)s2)c1 [KC158] |  |  |
|  |  |  |  |  |  | Clc1cccc(Cl)c1CSc1nnc(-c2ccc[nH]2)o1 [Dooku1, reference compound] | consistently inhibited responses to phenylephrine | reduces relaxations evoked by KC159 and KC289 |
| −6.5 fold | −3.8 fold | agonist effects |  |  | −23.6 fold | NC(=O)c1ccc(-c2nnc(SCc3c(Cl)cccc3Cl)s2)cc1 [KC161] |  |  |
